This is an account of results in patent publication US7199286B2, “Plant-derived novel pathogen and SAR-induction chemical induced promoters, and fragments thereof” (Syngenta Participations AG, priority 1999, dated 2007).

Each structure is given as a SMILES string.

This assay deals with Arabidopsis PR1 promoter. The assay can be described thus: GUS florescence assay of promoter::GUS plants after SA application, Arabidopsis PR1 promoter. Conditions: 5 mM SA spray. The format is in vivo. From the text:
A binary promoter::reporter plasmid (pNOV2374) for Arabidopsis transformation was constructed. The regulatory/promoter sequence was fused to the GUS reporter gene (Jefferson et al. (1987) EMBO J 6: 3901-3907) by recombination using […] Technology according to the manufacturer's protocol as described in the Instruction Manual (LifeTechnologies, Rockville, Md.). The construct was then transformed into Agrobacterium tumefaciens strains by electroporation. pNOV2374 is a binary vector with a VS1 origin of replication, a copy of the Agrobacterium virg gene in the backbone, and a Basta® resistance selectable marker cassette between the left and right border sequences of the T-DNA. The Basta® selectable marker cassette comprises the Agrobacterium tumefaciens manopine synthase promoter (AtMas) (Barker et al., Plant Mol. Biol. 2, 335-350 (1983)) operably linked to the gene encoding Basta® resistance (i.e., the “BAR” gene, phosphinothricin acetyl transferase) (White et al., Nucl Acids Res 18: 1062 (1990)) and the 35S terminator. The AtMas promoter, the BAR coding sequence, and the 35S terminator are located at nt 4211 to nt 4679, nt 4680 to nt 5228, and nt 5263 to nt 5488, respectively, of pNOV2374. The vector contains […] recombination components, which were introduced into the binary vector backbone by ligating a blunt-ended cassette containing attR sites, ccdB, and a cholramphenicol resistance marker using the […] Vector Conversion System (LifeTechnologies, Rockville, Md.). The […] cassette was located between nt 126 and 1818 of pNOV2374. The promoter cassettes were inserted through an LR recombination reaction whereby the DNA sequence of pNOV2374 between nt 126 and nt 1818 were removed and replaced with the promoter of interest flanked by att sequences. […] The GIG gene (SEQ ID NO:29) contains the ST-LS1 intron from Solanum tuberosum at nt 385 to nt 576 of GUS (obtained from Dr. Stanton […], Purdue University, and described in Narasimhulu, et al. (1996) Plant Cell 8: 873-886.). The orientation of the selectable marker and promoter-reporter cassettes in the binary vector construct was as follows: For the purpose of comparing promoter activity, additional constructs were produced with the known Arabidopsis PR1 (SEQ ID NO:30) and SMAS (SEQ ID NO:31) promoters (see Plant J. 16 (2) 223-233 (1998) and Plant Mol. Biol. 20 (2) 219-233 (1992), respectively) operatively linked to the GIG gene (SEQ ID NO:29) and the […]. […] The treatment was applied as a fine mist to the leaves. […] For quantitative analysis of promoter activity following induction treatments or in various Arabidopsis tissues and organs, GUS expression is measured florometrically. Tissue samples were harvested and ground in ice cold GUS extraction buffer (50 mM Na2HPO4 pH 7.0, 5 mM DTT, 1 mM Na2EDTA, 0.1% TritonX100, 0.1% sarcosyl). Ground samples were spun in a microfuge at 10,000 rpm for 15 minutes at 4° C. Following centrifugation, the supernatant was removed for the GUS assay and for a protein concentration determination. To measure GUS activity, the plant extract was assayed in GUS assay buffer (50 mM Na2HPO4 pH 7.0, 5 mM DTT, 1 mM Na2EDTA, 0.1% TritonX100, 0.1% sarcosyl, 1 mM 4-Methylumbelliferyl-beta-D-glucuronic acid dihydrate (MUG)), pre-warmed to 37° C. Reactions were incubated, and 100 uL aliquots were removed at 10 minute intervals over 30 minutes to stop the reaction by adding the 100 uL aliquots to tubes containing 900 uL of 2% Na2CO3. The stopped reactions were then read on a Tecan Spectroflourometer at 365 nm excitation and 455 emission wavelengths. Protein concentrations were determined using the BCA assay following the manufacturer's protocol. GUS activity is expressed as pmol MU/mg protein/min.

For the compound `O=C(O)c1ccccc1O` [SA, salicylic acid], the “GUS Activity Induced by SA” value is, setting by setting: (2 h) 57.7 pmol/mg protein/min; (4 h) 254.7 pmol/mg protein/min; (8 h) 206.5 pmol/mg protein/min; (24 h) 393.1 pmol/mg protein/min. The “GUS activity Fold-change relative to T0 (uninduced)” value is, setting by setting: (2 h) 3.4 fold; (4 h) 15.2 fold; (24 h) 23.4 fold.
